These results are taken from patent US20160000762A1, “IMPROVING COGNITIVE FUNCTION” (THE REGENTS OF THE UNIVERSITY OF CALIFORNIA, priority 2013, published 2016).

Data set [1] is described as follows: Cerebrovascular permeability and pharmacokinetic analysis of BTA-EG4 in mice. The note with it: 10 mg/kg i.p. In kind it is in vivo, male CD-1 mice. As for the experimental part:
Cerebrovascular permeability and pharmacokinetic analysis of BTA-EG4 in wild-type mice. The partitioning of BTA-EG4 between plasma and brain was studied in male CD-1 mice. The mice were dosed with 10 mg/kg (in 10% DMSO/90% PBS) intraparitoneally (IP, n=2 per time point) and the concentration of BTA-EG4 in the plasma and brain was measured over time. Blood was collected via cardiac puncture and was pooled in EDTA tubes, centrifuged, and the plasma isolated. The brain was collected from each mouse, snap frozen, and homogenized in 2 mL PBS. The concentration of BTA-EG4 in the plasma and brain at each time point was determined by LC/MS/MS and the concentrations of BTA-EG4 in the plasma and brain were plotted as a function of time. Pharmacokinetic parameters for the plasma and brain profile of BTA-EG4 were also calculated: half-life for BTA-EG4 in the plasma and brain (t1/2), the maximum concentration (Cmax) of BTA-EG4 in the plasma and brain, the area under the concentration-time curve (AUC), the brain-to-plasma ratio (BB), and the logarithmic brain-to-plasma ratio (Log BB).

Data set [2] deals with APP. Put plainly: APP processing in vivo (sAPPα, sAPPβ immunoblot). The note with it: 30 mg/kg i.p., 2 weeks. The arrangement: species or system wild-type mice. The method, then: To test whether BTA-EG4 alters Aβ production in vitro, primary cortical neurons were treated with BTA-EG4 (1 or 5 μM) or control (10% DMSO), and Aβ levels were measured using ELISA. […] We then examined whether BTA-EG4 can alter Aβ levels in vivo by injecting wild-type mice daily for 2 weeks with BTA-EG4 (15 or 30 mg/kg, 10% DMSO in saline, i.p.). […] Furthermore, BTA-EG4 altered APP processing in vivo, as monitored by increased sAPPα (α-secretase cleavage product) and decreased sAPPβ (β-secretase cleavage product) levels in BTA-EG4 injected wild-type mice (30 mg/kg, i.p) compared to control-injected mice (FIGS. 1E, 1F).
(In general: A western blot detects proteins with antibodies after separation by electrophoresis.)

Data set [3] concerns dendritic spines. Put plainly: Golgi staining, dendritic spines of wild-type mice. In kind it is in vivo. The note with it: 30 mg/kg, 2 weeks. As for the experimental part: Golgi staining and morphological analysis of dendritic spines. To analyze dendritic spine density and morphology in brain, FD RAPID GOLGISTAIN KIT™ (FD NeuroTechnologies, Ellicott City, Md., USA) was used. Dissected mouse brains were immersed in Solution A and B for 2 weeks in dark conditions at room temperature and transferred into Solution C for 24 h at 4° C. Brains were sliced using a VT1000S Vibratome (Leica, Bannockburn, Ill., USA) at 150 μm thickness. Dendritic images were acquired by Axioplan 2 (Zeiss, Oberkochen, Germany) under brightfield microscopy. Spine width, length, and linear density of cortical layers II/III and CA1 of hippocampus were measured using Scion image software (Scion Corporation, Frederick, Md., USA). Images were coded, and dendritic spines counted in a blinded manner. Spines from 0.2 to 2 μm in length were included for analysis. All morphological analysis was done blind to experimental conditions.

In data set [4] the test system is Ras. Put plainly: Ras activity assay, brain lysate of 3× Tg AD mice. The class given is in vivo. Conditions: cortex and hippocampus, 30 mg/kg daily, 2 weeks. The method, then:
Ras activity assay. Brain lysate from 3× Tg AD mice at 6-10 months or 13-16 months of age was homogenized with Ral buffer (25 mM Tris-HCl, pH 7.4, 250 mM NaCl, 0.5% NP40, 1.25 mM MgCl2, and 5% glycerol) to measure active Ras levels. Briefly, brain lysate was incubated with GST-Raf-RBD purified protein coupled with GLUTATHIONE SEPHAROSE™ (Amersham) overnight at 4° C. After 24 h, pellets were washed with Ral buffer and western blotting was conducted with anti-Ras.
BTA-EG4 injected 6-10 month old 3× Tg AD mice had increased Ras activity. […] Therefore, we examined whether the same mechanism is shared for improving dendritic spine density in the 3× Tg AD mouse model. To test this, 6-10 month old or 13-16 month old 3× Tg AD mice were injected with 30 mg/kg BTA-EG4 or vehicle daily for two weeks. After two weeks, mouse brains were homogenized with Ral buffer and levels of active Ras and RasGRF1 ([…]) were measured via Western blot. […] However, Ras activity was unchanged in the cortex and hippocampus of 13-16 month old mice (FIGS. 12E-12H, n=2 brains/group).

Consider BTA-EG4, for which the “blood brain barrier crossing” value in data set [1] was “readily crosses the blood brain barrier”. For the same substance, the “logarithmic brain-to-plasma ratio (log BB)” value in data set [1] (n=2 per time point, estimated value) was 0.43. In data set [2], the sAPPα levels entry is on record as “increased”. The sAPPβ levels result in data set [2] is on record as “decreased”. In addition, the dendritic spine density result in data set [3] (CA1 region of the hippocampus) and in data set [3] (cortical layers II/III) was “significantly increased” in each case. Moreover, in data set [3] (hippocampus CA1 and cortical layers II/III), the “spine morphology (spine head width and spine length)” value is reported as “did not alter”. The results for the Ras activity entry in data set [4] (6-10 months) and in data set [4] (13-16 months) were “increased” and “unchanged”, respectively.
